Among the data in PubChem BioAssay (NCI) are GI50 and TGI values, retold here.

Usually GI50 stands for the concentration giving 50% growth inhibition. For orientation: TGI means the concentration at which net growth stops.

Test systems include A549 NSCLC; CAKI-1 renal; CCRF-CEM leukemia; DU-145 prostate; HOP-92 NSCLC; IGROV1 ovarian; LOX IMVI melanoma; UACC-62 melanoma; UO-31 renal; MALME-3M melanoma.
Test in all cases: DTP human tumour cell line panel, 48 h

Values joined by “and” are separate entries in the source; they are usually repeats but may differ in a detail not shown here. Identical values can stand only once.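 Each compound was tested at five concentrations against cells in 96-well plates for 48 hours. Here, GI50 denotes the concentration required for 50% inhibition of growth. TGI: concentration producing complete growth inhibition.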 Bounds are passed on as bounds.

For `N#CC1C=Cc2c(ccc3ccccc23)N1C(=O)c1ccccc1` (stereo not given), the GI50 with A549 NSCLC was 0.339 µM; in the experiment with CAKI-1 renal, 0.108 µM; in the experiment with CCRF-CEM leukemia it was 0.149 µM; with DU-145 prostate it was 0.26 µM; in the experiment on HOP-92 NSCLC it was 3.1 µM; in the experiment with IGROV1 ovarian it was 0.105 µM. For the same molecule, the 50% growth inhibitory concentration (GI50) in the experiment with LOX IMVI melanoma was 0.319 µM; in the experiment on UACC-62 melanoma, 0.243 µM; with UO-31 renal, 1.01 µM. The TGI in the experiment with A549 NSCLC was greater than 100 µM; with CCRF-CEM leukemia it was greater than 69.9 µM; in the experiment on DU-145 prostate it was 1.97 µM; with HOP-92 NSCLC, greater than 100 µM; with IGROV1 ovarian, 3.23 µM; in the experiment with LOX IMVI melanoma, greater than 100 µM. Further, the TGI in the experiment with UACC-62 melanoma was greater than 100 µM; in the experiment on UO-31 renal it was greater than 23.6 µM.
On to `Cc1cc(Nc2cc(N)ncn2)c(=O)n2c1C(=O)NC21CCCCC1`, for which the GI50 in the experiment with A549 NSCLC is greater than 100 µM; in the experiment on CCRF-CEM leukemia, greater than 100 µM; in the experiment with DU-145 prostate, greater than 100 µM; in the experiment with HOP-92 NSCLC, 13.3 µM; in the experiment with IGROV1 ovarian it was 46.7 µM; in the experiment with LOX IMVI melanoma, greater than 100 µM. Moreover, the GI50 in the experiment with MALME-3M melanoma was greater than 100 µM; in the experiment with UACC-62 melanoma, greater than 100 µM; with UO-31 renal it was 51.8 µM. Besides, the TGI with A549 NSCLC, in the experiment with CCRF-CEM leukemia, in the experiment on DU-145 prostate, in the experiment with HOP-92 NSCLC, in the experiment on IGROV1 ovarian and in the experiment with LOX IMVI melanoma was greater than 100 µM in each case. In addition, the TGI with MALME-3M melanoma, with UACC-62 melanoma and with UO-31 renal was greater than 100 µM in each case.
On to `O=[N+]([O-])c1cccc2nccc(NCCCO)c12`, for which the TGI came to 49 µM with A549 NSCLC; 35.4 µM in the experiment on CAKI-1 renal; 57.5 µM with CCRF-CEM leukemia; 35.3 µM in the experiment with DU-145 prostate; 27.5 µM with IGROV1 ovarian; 31.7 µM with LOX IMVI melanoma. Also, the values for the TGI in the experiment on MALME-3M melanoma, in the experiment with UACC-62 melanoma and in the experiment on UO-31 renal were 22.1 µM, 23.3 µM and 35.3 µM, respectively.
For `COc1cc(NC(=O)C2=C(N3CCOCC3)/C(=C/c3ccc(Cl)cc3)CC2)cc(OC)c1OC`, the GI50 with A549 NSCLC is 55.9 µM; in the experiment with CAKI-1 renal, 23 µM; in the experiment with DU-145 prostate it was greater than 100 µM; in the experiment on IGROV1 ovarian it was 21.3 µM; in the experiment on LOX IMVI melanoma it was greater than 100 µM; in the experiment on MALME-3M melanoma, greater than 100 µM. Further, the GI50 in the experiment on UACC-62 melanoma was greater than 100 µM; with UO-31 renal, 20.8 µM. The TGI in the experiment on A549 NSCLC, in the experiment on CAKI-1 renal, with DU-145 prostate, with IGROV1 ovarian, in the experiment with LOX IMVI melanoma and in the experiment on MALME-3M melanoma was greater than 100 µM in each case. Moreover, the TGI in the experiment on UACC-62 melanoma and in the experiment on UO-31 renal was greater than 100 µM each time.
In the case of `COc1cc(-c2csc(NC(=O)Nc3cc(Cl)cc(Cl)c3)n2)cc(OC)c1OC`, the GI50 was 1.72 µM in the experiment on A549 NSCLC; 3.41 µM in the experiment on CCRF-CEM leukemia; 1.77 µM with DU-145 prostate; 1.7 µM in the experiment on HOP-92 NSCLC; 2.03 µM with IGROV1 ovarian; 1.93 µM with LOX IMVI melanoma. The GI50 in the experiment with MALME-3M melanoma is 1.75 µM; in the experiment on UACC-62 melanoma it was 1.61 µM; in the experiment on UO-31 renal it was 1.67 µM. Moreover, the TGI in the experiment with A549 NSCLC was 3.61 µM; with CCRF-CEM leukemia, greater than 100 µM; in the experiment on DU-145 prostate, 3.35 µM; with HOP-92 NSCLC, 3.73 µM; in the experiment on IGROV1 ovarian, 4.04 µM; in the experiment with LOX IMVI melanoma, 3.96 µM. The TGI was 3.25 µM with MALME-3M melanoma, 3.11 µM with UACC-62 melanoma and 3.3 µM in the experiment on UO-31 renal.
Regarding `O=C(O)Cn1cc([N+](=O)[O-])c(=O)c2ccccc21`, the TGI in the experiment on A549 NSCLC, with CAKI-1 renal, in the experiment with CCRF-CEM leukemia, in the experiment with DU-145 prostate, in the experiment on IGROV1 ovarian and in the experiment on MALME-3M melanoma was greater than 100 µM throughout. Besides, the TGI with UACC-62 melanoma and with UO-31 renal was greater than 100 µM in each case.
With `CS(=O)(=O)N(c1cc(-c2ccc3ncnc(Nc4cccc(Cl)c4)c3c2)cnc1Cl)S(C)(=O)=O`, the GI50 was 1.03 µM in the experiment on A549 NSCLC; 0.281 µM in the experiment on CAKI-1 renal; 0.52 µM with CCRF-CEM leukemia; 0.508 µM in the experiment on DU-145 prostate; 0.158 µM with HOP-92 NSCLC; 0.0951 µM in the experiment on IGROV1 ovarian. Also, the GI50 with LOX IMVI melanoma was 0.427 µM; with UACC-62 melanoma it was 0.312 µM; with UO-31 renal, 0.232 µM. Besides, the TGI is 4.24 µM in the experiment on A549 NSCLC; 2.08 µM with CAKI-1 renal; 89.3 µM in the experiment on CCRF-CEM leukemia; 14.1 µM in the experiment with DU-145 prostate; 0.891 µM with HOP-92 NSCLC; 0.528 µM in the experiment on IGROV1 ovarian. Further, the TGI in the experiment with LOX IMVI melanoma was found to be 2.26 µM; in the experiment on UACC-62 melanoma, 2.21 µM; with UO-31 renal, 2.52 µM.
Turning to `CCN(CC)c1ccc(/C=C/C=C2\NC(=O)NC2=O)cc1`, the GI50 was 3.69 µM in the experiment with A549 NSCLC; 2.65 µM in the experiment on CAKI-1 renal; 3.36 µM in the experiment with DU-145 prostate; 1.74 µM in the experiment on HOP-92 NSCLC; 3.57 µM with IGROV1 ovarian; 7.15 µM in the experiment on LOX IMVI melanoma. Also, the GI50 was 28.7 µM with MALME-3M melanoma, 3.95 µM in the experiment with UACC-62 melanoma and 7.97 µM in the experiment on UO-31 renal. Besides, the TGI in the experiment on A549 NSCLC was 32.7 µM; in the experiment on CAKI-1 renal it was greater than 100 µM; in the experiment on DU-145 prostate, 25.4 µM; in the experiment on HOP-92 NSCLC, 24.2 µM; in the experiment on IGROV1 ovarian it was greater than 100 µM; with LOX IMVI melanoma, greater than 100 µM. Further, the TGI in the experiment on MALME-3M melanoma, with UACC-62 melanoma and in the experiment on UO-31 renal was greater than 100 µM in each case.
Turning to `O=C(NC(=O)c1ccccc1[N+](=O)[O-])Nc1ccc(Oc2ncc(Cl)cn2)c(C(F)(F)F)c1`, the TGI is greater than 100 µM in the experiment with A549 NSCLC; greater than 100 µM with CCRF-CEM leukemia; greater than 100 µM in the experiment with DU-145 prostate; 3.24 µM with HOP-92 NSCLC; greater than 100 µM in the experiment with IGROV1 ovarian; 13.8 µM with LOX IMVI melanoma. Besides, the TGI with MALME-3M melanoma was greater than 100 µM; with UACC-62 melanoma, greater than 100 µM; with UO-31 renal, 35.2 µM.
Turning to `Cc1c([N+](=O)[O-])oc2ccc3ccccc3c12`, the TGI in the experiment on A549 NSCLC was greater than 100 µM; in the experiment on CAKI-1 renal, greater than 100 µM; in the experiment on CCRF-CEM leukemia it was greater than 100 µM; with DU-145 prostate, 83.7 µM; with HOP-92 NSCLC it was greater than 100 µM; in the experiment on IGROV1 ovarian, greater than 100 µM. Besides, the TGI in the experiment on LOX IMVI melanoma, in the experiment on UACC-62 melanoma and in the experiment with UO-31 renal was greater than 100 µM in each case.
As for `CNCCN=c1ccc2c3c1c(O)c1c(O)ccc(=O)c1c3[nH]n2CCNCCO`, the GI50 is 0.027 µM in the experiment on A549 NSCLC; 0.054 µM in the experiment with CAKI-1 renal; 0.199 µM in the experiment with HOP-92 NSCLC; 1.25 µM in the experiment with IGROV1 ovarian; 0.0949 µM and 0.395 µM with LOX IMVI melanoma; 0.696 µM and 0.511 µM in the experiment with MALME-3M melanoma. The GI50 is 0.0741 µM with UACC-62 melanoma; 0.918 µM and 3.47 µM in the experiment on UO-31 renal. In addition, the TGI in the experiment on A549 NSCLC is 4.65 µM and 4.57 µM; in the experiment on CAKI-1 renal, 0.992 µM and 2.28 µM; in the experiment on DU-145 prostate, 1.27 µM and 0.942 µM; in the experiment with HOP-92 NSCLC, 2.64 µM and 1.37 µM; with IGROV1 ovarian, 11.2 µM and 12.9 µM; with UACC-62 melanoma it was 3.07 µM. The TGI with UO-31 renal was 13 µM and 62.2 µM.
As for `O=C(O)C(Oc1nc(=S)[nH]c(=S)[nH]1)(c1ccc(Cl)cc1)c1ccc(Cl)cc1`, the TGI in the experiment with A549 NSCLC, in the experiment with CAKI-1 renal, in the experiment with DU-145 prostate, in the experiment on HOP-92 NSCLC, in the experiment with IGROV1 ovarian and in the experiment with LOX IMVI melanoma was greater than 100 µM throughout. In addition, the TGI in the experiment with MALME-3M melanoma, in the experiment with UACC-62 melanoma and with UO-31 renal was greater than 100 µM each time.
Turning to `CCSc1ccc(C2C(Br)C(=O)N2c2cc(OC)c(OC)c(OC)c2)cc1` (stereo not given), the GI50 is 0.598 µM in the experiment with A549 NSCLC; 0.278 µM with CCRF-CEM leukemia; 0.349 µM in the experiment on DU-145 prostate; 0.443 µM with HOP-92 NSCLC; 0.63 µM in the experiment on IGROV1 ovarian; 0.834 µM in the experiment on LOX IMVI melanoma. Further, the GI50 in the experiment on MALME-3M melanoma was 11.3 µM; in the experiment with UACC-62 melanoma, 0.0973 µM; in the experiment on UO-31 renal, 0.342 µM. Also, the TGI in the experiment with A549 NSCLC was greater than 100 µM; in the experiment on CCRF-CEM leukemia, 18.2 µM; in the experiment with DU-145 prostate, greater than 100 µM; in the experiment with HOP-92 NSCLC, 14.1 µM; with IGROV1 ovarian, 20.9 µM; in the experiment with LOX IMVI melanoma, 16.6 µM. Besides, the results for the TGI with MALME-3M melanoma, in the experiment with UACC-62 melanoma and in the experiment on UO-31 renal were 32.4 µM, 30 µM and 15.5 µM, respectively.
In the case of `Cc1c(Cl)cccc1NC(=O)c1sc2nc3c(cc2c1N)CCCCC3`, the GI50 with A549 NSCLC was 0.725 µM; in the experiment on CCRF-CEM leukemia it was 0.257 µM; in the experiment with DU-145 prostate, 0.598 µM; in the experiment with HOP-92 NSCLC, 0.266 µM; in the experiment with IGROV1 ovarian, 0.376 µM; in the experiment with LOX IMVI melanoma, 0.262 µM. In addition, the figures for the GI50 in the experiment on MALME-3M melanoma, in the experiment with UACC-62 melanoma and with UO-31 renal were 0.357 µM, 0.233 µM and 1.65 µM, respectively. In addition, the TGI in the experiment with A549 NSCLC is greater than 50 µM; in the experiment with CCRF-CEM leukemia, greater than 50 µM; in the experiment with DU-145 prostate, 17.3 µM; in the experiment with HOP-92 NSCLC, 19.2 µM; in the experiment on IGROV1 ovarian, greater than 50 µM; in the experiment on LOX IMVI melanoma, 23.7 µM. Moreover, the TGI in the experiment with MALME-3M melanoma was 37.7 µM; with UACC-62 melanoma it was greater than 50 µM; with UO-31 renal, greater than 50 µM.
